Results as given in patent publication US20240150321A1, “PYRAZOLYLSULFONAMIDE COMPOUNDS AND THEIR USE IN THERAPY” (HOTSPOT THERAPEUTICS, INC., priority 2022, published 2024).
Like-named read-outs stand apart in the source and are kept apart here.

Tests used:
Avi-tagged FL MALT-1 = Avi-tagged FL MALT-1 (Homo sapiens (Human), UniProt Q9UDY8); experiment: MALT-1 Fluorogenic Peptide Cleavage Assay (MALT1 inhibition assay); assay type: biochemical; settings: Ac-LRSR-AMC peptide substrate, 30 min pre-incubation, 90 min reaction at room temperature
Description: Inhibition of MALT1 activity by the presence of small molecules was evaluated using MALT-1 Fluorogenic Peptide Cleavage Assay. The assay utilizes a quenched AMC-labelled peptide that contains the MALT-1 recognition sequence and cleavage site (LRSR). MALT-1 mediated cleavage of the peptide relieves the quenching and leads to an increase in fluorescence at excitation (342 nm) and emission (441 nm).
The following reagents were obtained commercially and used to prepare standard reagent formulations as further described below: N-2-hydroxyethylpiperazine-N-2-ethane sulfonic acid (HEPES) (1 M, pH 7.5, stored at 4° C.), sodium citrate (stored at RT), tris(2-carboxyethyl) phosphine hydrochloride (T-CEP) (500 mM, stored at −20° C.), ethylenediaminetetraacetic acid (EDTA) (500 mM, stored at RT), dimethylsulfoxide (DMSO, stored at RT), 3-[(3-cholamido-propyl)dimethylammonio]-1-propane sulphate (CHAPS) (stored at RT), dimethylsulfoxide (DMSO), DMSO (Fisher Scientific, stored at RT), Avi-tagged FL MALT-1 (Pharmaron, stored at −70° C.), Ac-LRSR-AMC Peptide (SM Biochemicals, stored at −20° C.)., and ultrapure water (MILLLI-Q©).
The standard reagent formulations used in this assay were prepared and stored as follows. A 1.1 M solution of sodium citrate (161.3 g, 500 mL) was prepared and stored at room temperature. A 10% (w/v) CHAPS solution (2.0 g, 20 mL) was prepared and stored at 4° C. A 500 mM HEPES solution having pH of 6.89 was prepared from 200 mL of a 1 M HEPES solution having a pH of 7.5 using concentrated hydrochloric acid and brought to a final volume of 400 mL with MILLI-Q© H2O. The substrate, 10 mM Ac-LRSR-AMC Peptide, was prepared (10 mg, 1.370 mL DMSO) and stored at −20° C.
Compounds were plated to provide a 2% DMSO final concentration using a ProxiPlate-384 Plus F Black 384-shallow well microplate. The assay-ready plates were equilibrated to room temperature. A reaction buffer (30 mL total volume) was prepared by combining HEPES (pH 6.89, 25 mM, 1.5 mL), sodium citrate (660 mM, 18.0 mL), T-CEP (1 mM, 0.06 mL), EDTA ([…], 0.06 mL), CHAPS (0.05%, 0.15 mL), DMSO (2%, 0.6 mL), and MILLI-Q© H2O (10.23 mL; 9.63 mL when backfilled to 2% DMSO) followed by thorough mixing. DMSO was added only when compound plates had not been DMSO-backfilled to 2%.
MALT-1 was thawed and kept on ice. Peptide substrate was thawed on the bench under ambient conditions. A MALT-1 enzyme working stock was prepared from Avi-tagged FL MALT-1 (40 nM in a prepared reagent volume of 16.5 μL) and the reaction buffer (13.0 mL). MALT1 working stock (5 μL) was added to each well of the microplate. MALT-1 was pre-incubated with compounds for 30 minutes at room temperature.
Two substrate working stocks (Km and 10×Km) were prepared. The 1×Km substrate was prepared from Ac-LRSR-AMC Peptide (50 μM in a prepared reagent volume of 35.0 μL) and the reaction buffer (6.965 mL). The 10×Km substrate was prepared from Ac-LRSR-AMC Peptide (280 μM in a prepared reagent volume of 196.0 μL) and the reaction buffer (6.804 mL). The reaction was initiated by the addition of substrate working stock (5 μL, 50 μM) to Km plates and the addition of substrate working stock (5 μL 280 μM) to 10×Km plates. The plates were covered and incubated on the bench at room temperature for 90 minutes.
Fluorescence intensity was determined using a CLARIOstar microplate reader (BMG LABTECH) using the optimised AMC mode. Before taking readings, a 70% gain was applied on the neutral control well. Compound data were normalised to % Inhibition and used to plot sigmoidal concentration response curves to yield various parameters including IC50.

[1] = system: NF-kB reporter in Jurkat cells; experiment: NF-kB reporter assay in Jurkat cells stimulated with aCD3/aCD28/PMA; assay type: cell-based
Description: Jurkat cells were maintained in complete RPMI 1640 media supplemented with 10% FBS. Prior to the assay, 120 nL of the serial diluted compound was added in each well of 384-well flat bottom white plate (Corning #3570) by using liquid handler Echo550. Jurkat cells were harvested by centrifugation at 120 g for 10 min and resuspended in fresh RPMI 1640 media without serum. […] (25,000 cells) were seeded in each well of 384-well plate containing compound. After 1 hr incubation at 37° C. in a 5% CO2 incubator, […] of diluted aCD3/aCD28/PMA (final concentration at […] and […], respectively) in RPMI 1640 without serum were added to each well. After incubation at 37° C. in 5% CO2 for 4 hr, […] of One-Glo reagent (Promega #E6120) was added into each well. The plate was left at room temperature for 5 min and the signal was measured on EnVision (PerkinElmer).
Compounds in which an IC50 was not measured are designated as “N/A”.

[2] = Homo sapiens; Jurkat cells, 1 hr compound pre-incubation, aCD3/aCD28/PMA stimulation 4 hr, One-Glo readout; read-out: NF-kB Reporter Assay IC50
[3] = Jurkat cells, 1 hr compound pre-incubation, aCD3/aCD28/PMA stimulation 4 hr, One-Glo readout; read-out: NF-kB Reporter Assay IC50

Sequence of Avi-tagged FL MALT-1 (Q9UDY8 whole entry): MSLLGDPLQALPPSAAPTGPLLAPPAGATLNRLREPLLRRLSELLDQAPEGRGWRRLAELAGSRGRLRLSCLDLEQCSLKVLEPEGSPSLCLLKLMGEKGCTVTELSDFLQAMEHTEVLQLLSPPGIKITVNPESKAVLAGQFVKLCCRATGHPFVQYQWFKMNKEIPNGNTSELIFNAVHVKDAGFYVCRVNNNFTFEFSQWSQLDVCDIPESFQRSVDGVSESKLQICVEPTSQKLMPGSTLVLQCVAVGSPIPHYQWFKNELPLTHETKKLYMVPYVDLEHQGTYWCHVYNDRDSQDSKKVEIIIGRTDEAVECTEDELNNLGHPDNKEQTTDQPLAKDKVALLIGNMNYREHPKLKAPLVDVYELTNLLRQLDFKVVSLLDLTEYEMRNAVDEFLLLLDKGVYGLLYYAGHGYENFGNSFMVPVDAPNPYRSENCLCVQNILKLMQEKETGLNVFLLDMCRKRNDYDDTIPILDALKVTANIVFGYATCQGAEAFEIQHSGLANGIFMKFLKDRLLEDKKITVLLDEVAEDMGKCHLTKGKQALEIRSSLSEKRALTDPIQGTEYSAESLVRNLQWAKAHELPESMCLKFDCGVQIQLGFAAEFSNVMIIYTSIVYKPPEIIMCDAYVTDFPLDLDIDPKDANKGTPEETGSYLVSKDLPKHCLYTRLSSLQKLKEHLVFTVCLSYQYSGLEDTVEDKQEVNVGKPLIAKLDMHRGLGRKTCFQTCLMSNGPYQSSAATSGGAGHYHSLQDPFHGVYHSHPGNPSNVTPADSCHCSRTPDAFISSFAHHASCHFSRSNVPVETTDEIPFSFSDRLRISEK

Row | SMILES | IC50 (Avi-tagged FL MALT-1) | IC50 [1, 2] | IC50 [1, 3] | IC50 ([1]; read-out: NF-kB Reporter Assay IC50; Jurkat cells, 1 hr compound pre-incubation, aCD3/aCD28/PMA stimulation 4 hr, One-Glo readout)
1 | COc1ncc2cnn(C)c2c1NS(=O)(=O)c1cnn(-c2cc(C(C)OC)ccn2)c1 (single isomer, unassigned) [Compound I-272, N-(6-methoxy-1-methyl-1H-pyrazolo[4,3-c]pyridin-7-yl)-1-(4-(1-methoxyethyl)pyridin-2-yl)-1H-pyrazole-4-sulfonamide] | ≤ 400 nM | < 400 nM | – | –
2 | COc1ncc2cnn(C)c2c1NS(=O)(=O)c1cnn(-c2cc(C(C)OC)ccn2)c1 (single isomer, unassigned) [Compound I-273, N-{6-methoxy-1-methylpyrazolo[4,3-c]pyridin-7-yl}-1-{4-[1-methoxyethyl]pyridin-2-yl}pyrazole-4-sulfonamide] | ≤ 400 nM | – | < 400 nM | –
3 | CCC(O)c1ccnc(-n2cc(S(=O)(=O)Nc3c(OC)ccc4cnn(C)c34)cn2)c1 (single isomer, unassigned) [Compound I-280, 1-(4-(1-hydroxypropyl)pyridin-2-yl)-N-(6-methoxy-1-methyl-1H-indazol-7-yl)-1H-pyrazole-4-sulfonamide] | 400 to 1000 nM | – | – | < 400 nM
4 | CCC(O)c1ccnc(-n2cc(S(=O)(=O)Nc3c(OC)ccc4cnn(C)c34)cn2)c1 (single isomer, unassigned) [Compound I-281, 1-(4-(1-hydroxypropyl)pyridin-2-yl)-N-(6-methoxy-1-methyl-1H-indazol-7-yl)-1H-pyrazole-4-sulfonamide] | 400 to 1000 nM | < 400 nM | – | –
5 | COc1ccc2cnn(C)c2c1NS(=O)(=O)c1cnn(-c2cc(C(C)OC)ccn2)c1 (single isomer, unassigned) [Compound I-290, N-(6-methoxy-1-methyl-1H-indazol-7-yl)-1-(4-(1-methoxyethyl)pyridin-2-yl)-1H-pyrazole-4-sulfonamide] | ≤ 400 nM | < 400 nM | – | –
6 | COc1ccc2cnn(C)c2c1NS(=O)(=O)c1cnn(-c2cc(C(C)OC)ccn2)c1 (single isomer, unassigned) [Compound I-291, N-(6-methoxy-1-methyl-1H-indazol-7-yl)-1-(4-(1-methoxyethyl)pyridin-2-yl)-1H-pyrazole-4-sulfonamide] | ≤ 400 nM | – | < 400 nM | –
7 | COc1ncc2cnn(C)c2c1NS(=O)(=O)c1cnn(-c2cc(C(C)O)ccn2)c1 (single isomer, unassigned) [Compound I-292, 1-(4-(1-hydroxyethyl)pyridin-2-yl)-N-(6-methoxy-1-methyl-1H-pyrazolo[4,3-c]pyridin-7-yl)-1H-pyrazole-4-sulfonamide] | 400 to 1000 nM | 400 to 1000 nM | – | –
8 | COc1ncc2cnn(C)c2c1NS(=O)(=O)c1cnn(-c2cc(C(C)O)ccn2)c1 (single isomer, unassigned) [Compound I-293, 1-(4-(1-hydroxyethyl)pyridin-2-yl)-N-(6-methoxy-1-methyl-1H-pyrazolo[4,3-c]pyridin-7-yl)-1H-pyrazole-4-sulfonamide] | ≤ 400 nM | – | 400 to 1000 nM | –
9 | CCC(C)(O)c1ccnc(-n2cc(S(=O)(=O)Nc3c(OC)ccc4cnn(C)c34)cn2)c1 (single isomer, unassigned) [Compound I-315, 1-(4-(2-hydroxybutan-2-yl)pyridin-2-yl)-N-(6-methoxy-1-methyl-1H-indazol-7-yl)-1H-pyrazole-4-sulfonamide] | 400 to 1000 nM | < 400 nM | – | –
10 | CCC(C)(OC)c1ccnc(-n2cc(S(=O)(=O)Nc3c(OC)ccc4cnn(C)c34)cn2)c1 (single isomer, unassigned) [Compound I-360, N-(6-methoxy-1-methyl-1H-indazol-7-yl)-1-(4-(2-methoxybutan-2-yl)pyridin-2-yl)-1H-pyrazole-4-sulfonamide] | ≤ 400 nM | < 400 nM | – | –
11 | CCC(C)(OC)c1ccnc(-n2cc(S(=O)(=O)Nc3c(OC)ccc4cnn(C)c34)cn2)c1 (single isomer, unassigned) [Compound I-361, N-(6-methoxy-1-methyl-1H-indazol-7-yl)-1-(4-(2-methoxybutan-2-yl)pyridin-2-yl)-1H-pyrazole-4-sulfonamide] | ≤ 400 nM | – | < 400 nM | –
12 | COc1ccc2cnn(C)c2c1NS(=O)(=O)c1cnn(-c2cc(C3(OC)CC(C)C3)ccn2)c1 (single isomer, unassigned) [Compound I-364, N-(6-methoxy-1-methyl-1H-indazol-7-yl)-1-(4-(1-methoxy-3-methylcyclobutyl)pyridin-2-yl)-1H-pyrazole-4-sulfonamide] | 400 to 1000 nM | < 400 nM | – | –
13 | COc1ccc2cnn(C)c2c1NS(=O)(=O)c1cnn(-c2cc(C3(OC)CC(C)C3)ccn2)c1 (single isomer, unassigned) [Compound I-365, N-(6-methoxy-1-methyl-1H-indazol-7-yl)-1-(4-(1-methoxy-3-methylcyclobutyl)pyridin-2-yl)-1H-pyrazole-4-sulfonamide] | ≤ 400 nM | – | < 400 nM | –
14 | COc1ccc2cnn(C)c2c1NS(=O)(=O)c1cnn(-c2cc(C3(F)CC(F)C3)ccn2)c1 (single isomer, unassigned) [Compound I-377, 1-(4-(1,3-difluorocyclobutyl)pyridin-2-yl)-N-(6-methoxy-1-methyl-1H-indazol-7-yl)-1H-pyrazole-4-sulfonamide] | 400 to 1000 nM | < 400 nM | – | –
15 | COc1ccc2cnn(C)c2c1NS(=O)(=O)c1cnn(-c2cc(C3(F)CC(F)C3)ccn2)c1 (single isomer, unassigned) [Compound I-378, 1-(4-(1,3-difluorocyclobutyl)pyridin-2-yl)-N-(6-methoxy-1-methyl-1H-indazol-7-yl)-1H-pyrazole-4-sulfonamide] | ≤ 400 nM | – | < 400 nM | –
16 | CCc1ccc2cnn(C)c2c1NS(=O)(=O)c1cnn(-c2ccnc(C(F)(F)F)n2)c1 [Compound I-11, N-(6-Ethyl-1-Methyl-1H-Indazol-7-yl)-1-(2-(Trifluoromethyl) Pyrimidin-4-yl)-1H-Pyrazole-4-Sulfonamide] | 1000 to 2500 nM | – | – | –
17 | CCc1ccc2cnn(C)c2c1NS(=O)(=O)c1cnn(-c2cccc(C(F)(F)F)n2)c1 [Compound I-12, N-(6-Ethyl-1-Methyl-1H-Indazol-7-yl)-1-(2-(Trifluoromethyl) Pyridin-2-yl)-1H-Pyrazole-4-Sulfonamide] | > 2500 nM | – | – | –
18 | Cn1ncc2cccc(NS(=O)(=O)c3cnn(-c4cccc(C(F)(F)F)n4)c3)c21 [Compound I-13, N-(1-Methyl-1H-Indazol-7-yl)-1-(6-(Trifluoromethyl)Pyridin-2-yl)-1H-Pyrazole-4-Sulfonamide] | > 2500 nM | – | – | –
